System: Leukotriene D4 (ileum contraction induced by LTD4)
Assay: Guinea Pig Ileum Assay for Evaluation of Antagonists of Leukotriene D4 (Inhibition of Ileum Contraction Induced by LTD4)
Assay type: cell-based, guinea pig (male Hartley strain)
Conditions: Cavia porcellus, LTD4 0.3 ng/ml, 30 second pretreatment; for inhibition at 10 µg/mL: 10 μg/ml
Procedure: The terminal ileum from male Hartley strain guinea pigs (300-500 g) was removed and suspended under 1 g resting tension in Tyrode's solution containing 1.0×10^-6 M atropine sulfate and 1.6×10^-6 M timolol (beta blocker). After a 15-30 minute stabilization period, a standard dose of leukotriene D4 (0.3 ng/ml--final bath concentration)was added repeatedly until consistent and reproducible contractile responses were obtained. Isometric contractions to leukotriene D4 were recorded for 60 seconds and then the tissue was washed and allowed to recove to baseline (2 minutes) before the next dose of leukotriene D4 was added. For testing antagonist compounds, a 30 second pretreatment period was used and the percent inhibition of the control contraction to leukotriene D4 was recorded. A similar procedure was employed for testing active compounds against contractions to a standard dose of histamine (50 ng/ml--final bath concentration).

CCCc1c(OCC2(O)CCCCC2Sc2ccc(C(=O)CCC(=O)O)cc2)ccc(C(C)=O)c1O [L-649,106]
inhibition at 1 µg/mL (1 μg/ml): 23%
inhibition at 10 µg/mL: 80%

CCCc1c(OCC2(Sc3ccc(C(=O)CCC(=O)O)cc3)CCCCC2O)ccc(C(C)=O)c1O [L-649,107]
inhibition at 10 µg/mL: 12%

Reference: patent US4871756A, “Leukotriene antagonists” (Merck Frosst Canada, Inc., priority 1987, dated 1989)
